Read-outs that look alike come from different tables or passages of the source.
Description: A lyophilizated product solubility test and a stability test are conducted to compare the cosmetic composition of the present invention with the start materials of the cosmetic composition.

Solubility (after processing the cosmetic composition (lyophilized with water-soluble collagen, rehydrated with the amount of water removed)): 2 wt %
Solubility (start materials of the cosmetic composition (without processing)): 0.5 wt %
SMILES: O=C1O[C@H]([C@@H](O)CO)C([O-])=C1OP(=O)([O-])[O-].O=C1O[C@H]([C@@H](O)CO)C([O-])=C1OP(=O)([O-])[O-].[Mg+2].[Mg+2].[Mg+2] [Magnesium ascorbyl phosphate, magnesium ascorbyl phosphate]
